# In patent US20230398130A1, “METHODS AND COMPOSITIONS FOR DIFFERENTIATING STEM CELLS” (Massachusetts Institute of Technology, priority 2020, published 2023):
# Counter-ions that a name gives are not always drawn.
# Columns and labels:
# [1] = system: ISC-enriched organoids; test: Primary screen, 384-well 2.5-D organoid differentiation (ENR+CD, 6 days, Target Selective Inhibitor Library, vs whole-plate median): ATP (CellTiter-Glo 3D, CTG); conditions: for Z.CTG: standard z score of FC
# [2] = system: ISC-enriched organoids; test: Primary screen, 384-well 2.5-D organoid differentiation (ENR+CD, 6 days): basal lysozyme secretion (LYZ.NS); format: cell-based, murine; conditions: primary screen, strictly standardized mean difference of replicates; four lines per treatment = four doses (dose not given); column head inferred
# Source text: High-throughput screening.
Compound,"Z.CTG (standard z score) ([1]; Dose 0.08 uM, primary screen)","Z.CTG (standard z score) ([1]; Dose 0.40 uM, primary screen)","Z.CTG (standard z score) ([1]; Dose 2.00 uM, primary screen)","Z.CTG (standard z score) ([1]; Dose 10.00 uM, primary screen)",Z.CTG ([1]; Dose 0.40 uM),Z.CTG ([1]; Dose 2.00 uM),Z.CTG ([1]; Dose 10.00 uM),Z.CTG ([1]; Dose 0.08 uM),also measured
Cc1c(Cl)cccc1Nc1ccccc1C(=O)O [Tolfenamic Acid],,,,,,,,,Z.CTG (standard z score) ([1]; dose 0.08 uM): 0.467; Z.CTG (standard z score) ([1]; dose 0.40 uM): −0.007; Z.CTG (standard z score) ([1]; dose 2.00 uM): −0.379; Z.CTG (standard z score) ([1]; dose 10.00 uM): −0.276
Cc1[nH]c(/C=C2\C(=O)Nc3ccc(S(=O)(=O)N(C)c4cccc(Cl)c4)cc32)c(C)c1C(=O)N1CCN(C)CC1 [SU11274],0.852,0.645,0.139,−1.954,,,,,
CNCc1ccc(-c2cc(-c3nc(-c4ccc(S(=O)(=O)C(C)C)cc4)cnc3N)on2)cc1 [VE-822],,,,,,,,,Z.CTG (standard z score) ([1]; dose 0.08 uM): −0.351; Z.CTG (standard z score) ([1]; dose 0.40 uM): −0.685; Z.CTG (standard z score) ([1]; dose 2.00 uM): −1.713; Z.CTG (standard z score) ([1]; dose 10.00 uM): −4.212
CCOc1nc2cccc(C(=O)O)c2n1Cc1ccc(-c2ccccc2-c2nnn[nH]2)cc1 [Candesartan],,,,,−0.299,−0.473,−0.604,,SSMD.LYZ.NS [2]: −0.474
COc1ccc2cc([C@H](C)C(=O)O)ccc2c1 [Naproxen],,,,,−0.162,−1.405,−3.063,−0.233,
COc1ccc([C@]2(C#N)CC[C@@H](C(=O)O)CC2)cc1OC1CCCC1 [Cilomilast],,,,,−0.807,−0.562,−0.458,−0.799,
CN1CCN(c2nc(C3=C(c4c[nH]c5ccccc45)C(=O)NC3=O)c3ccccc3n2)CC1 [Sotrastaurin],0.024,−0.286,−0.650,−0.578,,,,,
Cc1cc(OCCCS(C)(=O)=O)cc(C)c1-c1cccc(COc2ccc3c(c2)OC[C@H]3CC(=O)O)c1 [TAK-875],0.572,−0.392,−0.376,−0.694,,,,,
CN(C)CCc1c[nH]c2ccc(Cn3cncn3)cc12 [Rizatriptan Benzoate],0.512,0.260,0.302,−0.129,,,,,
O=C(N/N=C/c1ccc(O)c(O)c1)c1cc2ccccc2cc1O [Dynasore],,,,,−0.604,−0.364,−0.026,−0.592,
COc1ccccc1N1CCN(CC(O)COc2cccc3ccccc23)CC1 (stereo not shown) [Naftopidil],,,,,−0.384,−0.426,−0.316,−0.093,
COCCCC/C(=N\OCCN)c1ccc(C(F)(F)F)cc1 [Fluvoxamine maleate],,,,,0.607,0.504,0.330,0.274,
C=C1C(=O)O[C@@H]2/C=C(\C)CC/C=C(\C)CC[C@@H]12 [Costunolide],,,,,0.288,0.120,0.019,−0.070,
COc1cc(N2CCC(N3CCN(C)CC3)CC2)ccc1Nc1ncc(Cl)c(Nc2ccccc2P(C)(C)=O)n1 [AP26113],,,,,,,,,"Z.CTG ([1]; primary screen, dose 0.08 uM): −0.130; Z.CTG ([1]; primary screen, dose 0.40 uM): 0.145; Z.CTG ([1]; primary screen, dose 2.00 uM): −1.333; Z.CTG ([1]; primary screen, dose 10.00 uM): −4.012"
CCCN[C@H]1CCc2nc(N)sc2C1 [Pramipexole],0.261,0.436,0.062,0.551,,,,,
C[C@]12CC[C@@H]3c4ccc(O)cc4C[C@@H](CCCCCCCCC[S+]([O-])CCCC(F)(F)C(F)(F)F)[C@H]3[C@@H]1CC[C@@H]2O (stereo partly shown) [Fulvestrant],,,,,−0.150,0.339,−0.488,0.285,
